Data reported in patent US10131652B2, “Pyrimidinyloxy benzene derivatives as herbicides” (E. I. DU PONT DE NEMOURS AND COMPANY, priority 2014, dated 2018).
Read-outs that look alike come from different tables or passages of the source.

What was measured:
Test in all cases: Test D pre-/postemergence plant response
Format in all cases: in vivo
[1] = test system: blackgrass (Alopecurus myosuroides); settings: Alopecurus myosuroides; for pest or weed control at 16 g/ha: 16 g ai/ha; for pest or weed control at 31 g/ha: 31 g ai/ha; for pest or weed control at 62 g/ha: 62 g ai/ha; for pest or weed control at 125 g/ha: 125 g ai/ha
Method in brief: (§1)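 Pre-/post-emergence greenhouse test. Pre: seeded loam+sand, sprayed same day. Post: 1–4 leaf plants (2–18 cm), peat/vermiculite mix. Formulation: non-phytotoxic solvent + surfactant. Scored visually d13–15, 0–100 vs control.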

[2] = test system: soybean (Glycine max); settings: Glycine max; for plant injury at 16 g/ha: 16 g ai/ha; for plant injury at 31 g/ha: 31 g ai/ha; for plant injury at 62 g/ha: 62 g ai/ha; for plant injury at 125 g/ha: 125 g ai/ha
Method in brief: as §1

[3] = test system: Italian ryegrass (Lolium multiflorum); settings: Lolium multiflorum; for pest or weed control at 16 g/ha: 16 g ai/ha; for pest or weed control at 31 g/ha: 31 g ai/ha; for pest or weed control at 62 g/ha: 62 g ai/ha; for pest or weed control at 125 g/ha: 125 g ai/ha
Method in brief: as §1

[4] = test system: corn (Zea mays); settings: Zea mays; for Corn plant response rating (crop injury, 0 = no effect, 100 = complete kill) at 62 g/ha: 62 g ai/ha
Method in brief: as §1

[5] = test system: morningglory (Ipomoea coccinea); settings: Ipomoea; for pest or weed control at 16 g/ha: 16 g ai/ha; for pest or weed control at 31 g/ha: 31 g ai/ha; for pest or weed control at 62 g/ha: 62 g ai/ha; for pest or weed control at 125 g/ha: 125 g ai/ha
Method in brief: as §1

[6] = test system: pigweed (Amaranthus retroflexus); settings: Amaranthus retroflexus; for pest or weed control at 16 g/ha: 16 g ai/ha; for pest or weed control at 31 g/ha: 31 g ai/ha; for pest or weed control at 62 g/ha: 62 g ai/ha; for pest or weed control at 125 g/ha: 125 g ai/ha
Method in brief: as §1

[7] = post-emergence, Postemergence, scale 0 to 100 (0 no effect, 100 complete control), read-out: Blackgrass plant response rating
[8] = post-emergence, Postemergence, scale 0 to 100, 0 no effect, 100 complete control, read-out: Plant response rating, Blackgrass
[9] = pre-emergence, Preemergence, scale 0 to 100 (0 no effect, 100 complete control), read-out: Plant response rating, Blackgrass
[10] = post-emergence, Postemergence, scale 0 to 100 (0 no effect, 100 complete control), read-out: Soybean plant response rating
[11] = post-emergence, Postemergence, scale 0 to 100, 0 no effect, 100 complete control, read-out: Plant response rating, Soybean
[12] = pre-emergence, Preemergence, scale 0 to 100 (0 no effect, 100 complete control), read-out: Plant response rating, Soybean
[13] = post-emergence, Postemergence, scale 0 to 100 (0 no effect, 100 complete control), read-out: Ryegrass, Italian plant response rating
[14] = post-emergence, Postemergence, scale 0 to 100, 0 no effect, 100 complete control, read-out: Plant response rating, Ryegrass, Italian
[15] = pre-emergence, Preemergence, scale 0 to 100 (0 no effect, 100 complete control), read-out: Plant response rating, Ryegrass, Italian
[16] = post-emergence, Postemergence, scale 0 to 100 (0 no effect, 100 complete control), read-out: Morningglory plant response rating
[17] = post-emergence, Postemergence, scale 0 to 100, 0 no effect, 100 complete control, read-out: Plant response rating, Morningglory
[18] = pre-emergence, Preemergence, scale 0 to 100 (0 no effect, 100 complete control), read-out: Plant response rating, Morningglory
[19] = post-emergence, Postemergence, scale 0 to 100 (0 no effect, 100 complete control), read-out: Pigweed plant response rating
[20] = post-emergence, Postemergence, scale 0 to 100, 0 no effect, 100 complete control, read-out: Plant response rating, Pigweed
[21] = pre-emergence, Preemergence, scale 0 to 100 (0 no effect, 100 complete control), read-out: Plant response rating, Pigweed

FC(F)(F)c1cc(-c2ccccc2Oc2ncc(Cl)cn2)on1 [Compound 63, 5-chloro-2-[2-[3-(trifluoromethyl)-5-isoxazolyl]phenoxy]pyrimidine]
pest or weed control at 16 g/ha [1, 7]: 5%
pest or weed control at 31 g/ha [1, 7]: 10%
pest or weed control at 62 g/ha [1, 8]: 20%
pest or weed control at 125 g/ha [1, 8]: 25%
pest or weed control at 125 g/ha ([1]; pre-emergence, Preemergence, read-out: Plant response rating (scale 0 to 100), Blackgrass): 90%
pest or weed control at 16 g/ha [1, 9]: 30%
pest or weed control at 31 g/ha [1, 9]: 85%
pest or weed control at 62 g/ha [1, 9]: 90%
plant injury at 16 g/ha [2, 10]: 35%
plant injury at 31 g/ha [2, 10]: 45%
plant injury at 62 g/ha [2, 11]: 55%
plant injury at 125 g/ha [2, 11]: 98%
plant injury at 125 g/ha ([2]; pre-emergence, Preemergence, read-out: Plant response rating (scale 0 to 100), Soybean): 60%
plant injury at 16 g/ha [2, 12]: 5%
plant injury at 31 g/ha [2, 12]: 15%
plant injury at 62 g/ha [2, 12]: 45%
pest or weed control at 16 g/ha [3, 13]: 0%
pest or weed control at 31 g/ha [3, 13]: 0%
pest or weed control at 62 g/ha [3, 14]: 5%
pest or weed control at 125 g/ha [3, 14]: 30%
pest or weed control at 125 g/ha ([3]; pre-emergence, Preemergence, read-out: Plant response rating (scale 0 to 100), Ryegrass, Italian): 90%
pest or weed control at 16 g/ha [3, 15]: 0%
pest or weed control at 31 g/ha [3, 15]: 40%
pest or weed control at 62 g/ha [3, 15]: 80%
plant injury at 16 g/ha ([4]; post-emergence, Postemergence, 16 g ai/ha, scale 0 to 100 (0 no effect, 100 complete control), read-out: Corn plant response rating): 5%
plant injury at 31 g/ha ([4]; post-emergence, Postemergence, 31 g ai/ha, scale 0 to 100 (0 no effect, 100 complete control), read-out: Corn plant response rating): 5%
Corn plant response rating (crop injury, 0 = no effect, 100 = complete kill) at 62 g/ha ([4]; post-emergence, Postemergence, scale 0 to 100, 0 no effect, 100 complete control): 5%
Corn plant response rating (crop injury, 0 = no effect, 100 = complete kill) at 125 g/ha ([4]; post-emergence, Postemergence, 125 g ai/ha, scale 0 to 100, 0 no effect, 100 complete control): 10%
plant injury at 125 g/ha ([4]; pre-emergence, Preemergence, 125 g ai/ha, read-out: Plant response rating (scale 0 to 100), Corn): 15%
Corn plant response rating (crop injury, 0 = no effect, 100 = complete kill) at 16 g/ha ([4]; pre-emergence, Preemergence, 16 g ai/ha, scale 0 to 100 (0 no effect, 100 complete control)): 0%
Corn plant response rating (crop injury, 0 = no effect, 100 = complete kill) at 31 g/ha ([4]; pre-emergence, Preemergence, 31 g ai/ha, scale 0 to 100 (0 no effect, 100 complete control)): 5%
Corn plant response rating (crop injury, 0 = no effect, 100 = complete kill) at 62 g/ha ([4]; pre-emergence, Preemergence, scale 0 to 100 (0 no effect, 100 complete control)): 15%
pest or weed control at 16 g/ha [5, 16]: 50%
pest or weed control at 31 g/ha [5, 16]: 50%
pest or weed control at 62 g/ha [5, 17]: 98%
pest or weed control at 125 g/ha [5, 17]: 70%
pest or weed control at 125 g/ha ([5]; pre-emergence, Preemergence, read-out: Plant response rating (scale 0 to 100), Morningglory): 60%
pest or weed control at 16 g/ha [5, 18]: 0%
pest or weed control at 31 g/ha [5, 18]: 0%
pest or weed control at 62 g/ha [5, 18]: 25%
pest or weed control at 16 g/ha [6, 19]: 85%
pest or weed control at 31 g/ha [6, 19]: 85%
pest or weed control at 62 g/ha [6, 20]: 90%
pest or weed control at 125 g/ha [6, 20]: 95%
pest or weed control at 125 g/ha ([6]; pre-emergence, Preemergence, read-out: Plant response rating (scale 0 to 100), Pigweed): 100%
pest or weed control at 16 g/ha [6, 21]: 95%
pest or weed control at 31 g/ha [6, 21]: 100%
pest or weed control at 62 g/ha [6, 21]: 100%
